In this experiment the test system is A549 viability, CellTiter-Glo luminescence, 48 h. The experiment is described as follows: A549 cell killing, TP53 wild-type line, dose response, selectivity assay for TP53-mutant selective toxicity project, CellTiter-Glo luminescence, dry powder (AID 743090).

Broadly, the IC50 is the concentration that gives 50% inhibition.

Activity calls are given as the source filed them.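 Rule for the calls: active = IC50 below 10 µM in A549 cells, with the call taken as the median across tests; inactive = IC50 above 10 µM in A549 cells.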

Regarding `C[C@@H]1CC(=O)NN=C1c1ccc(N2CCOCC2)c(F)c1`, the IC50 was > 10 µM (inactive). Consider `CC1CC(=O)N(c2ccccc2)N=C1c1ccc(Cl)cc1` (stereo not drawn), for which the IC50 was > 10 µM (inactive). As for `CCN1N=C(c2ccc(N(CC)CC)cc2)[C@H](C)CC1=O`, the figure is > 10 µM (inactive); as for `CC1CC(=O)NN=C1c1ccc(F)c(F)c1` (stereo not drawn), > 10 µM (inactive). Take `C[C@@H]1CC(=O)NN=C1c1ccc(N)c(Br)c1`: the IC50 was > 10 µM (inactive).

Consider `C[C@@H]1CC(=O)NN=C1c1ccc(N2CCCC2=O)cc1`, for which the IC50 is > 10 µM (inactive). With `C[C@@H]1CC(=O)NN=C1c1ccc([Si](C)(C)C)cc1`, the IC50 is > 10 µM (inactive). As for `C[C@@H]1CC(=O)NN=C1c1ccc(-n2cnnc2)cc1`, the figure is > 10 µM (inactive).

With `CC1CC(=O)NN=C1c1ccc(N2CCOCC2)c(F)c1` (stereo not drawn), the IC50 was > 10 µM (inactive). As for `C[C@@H]1CC(=O)NN=C1c1ccc(C2=CCCCC2)cc1`, the IC50 is > 10 µM (inactive). As for `C[C@@H]1CC(=O)NN=C1c1ccc(F)cc1` (racemic), the figure is > 10 µM (inactive); as for `C#Cc1cc(C2=NNC(=O)C[C@H]2C)ccc1NC(C)=O`, > 10 µM (inactive); as for `CCN(CC)c1ccc(-c2n[nH]c(=O)cc2C)cc1`, > 10 µM (inactive). As for `C[C@H]1CC(=O)NN=C1c1ccc(N2CCOCC2)c(F)c1`, the figure is > 10 µM (inactive); as for `CC(=O)Nc1ccc(C2=NNC(=O)C[C@H]2C)cc1`, > 10 µM (inactive). As for `CC(=O)N1CCN(c2ccc(C3=NNC(=O)CC3C)cc2F)CC1` (stereo not drawn), the figure is > 10 µM (inactive); as for `CC(=O)Nc1ccc(C2=NNC(=O)C[C@H]2C)cc1Br`, > 10 µM (inactive); as for `CC(=O)Nc1ccc(C2=NNC(=O)C[C@H]2C)cc1N`, > 10 µM (inactive). For `C[C@@H]1CC(=O)NN=C1c1ccc(I)cc1`, the IC50 was > 10 µM (inactive).

Turning to `CCN(CC)c1ccc(C2=NNC(=O)CC2C)cc1` (stereo not drawn), the IC50 was > 10 µM (inactive). The result for `C[C@@H]1CC(=O)NN=C1c1ccc(N2CCCOC2=O)cc1` reads > 10 µM (inactive). Regarding `CCN(CC)c1ccc(C(=O)Nc2ccccc2)cc1[N+](=O)[O-]`, the IC50 was > 10 µM (inactive). As for `CC1(C)C(=O)NN=C1c1ccc([N+](=O)[O-])cc1`, the figure is > 10 µM (inactive); as for `CCN(CC)c1ccc(C2=NNC(=O)C2(C)C)cc1`, > 10 µM (inactive); as for `C[C@@H]1CC(=O)NN=C1c1ccc(-c2cncnc2)cc1`, > 10 µM (inactive). As for `CCN(CC)c1ccc(C2=NNC(=O)CC2C)cc1N` (stereo not drawn), the figure is > 10 µM (inactive). The result for `CCN(CC)c1ccc(C2=NNC(=O)CC2C)cc1NCCOCCOCCNC(=O)OC(C)(C)C` (stereo not drawn) reads > 10 µM (inactive); that for `C[C@@H]1CC(=O)NN=C1c1ccc(N)c([N+](=O)[O-])c1`, > 10 µM (inactive). Consider `CCN(CC)c1ccc(C2=NNC(=O)C[C@H]2C)cc1[N+](=O)[O-]`, for which the IC50 is > 10 µM (inactive). Consider `CC(=O)Nc1ccc(C2=NNC(=O)C[C@H]2C)cc1C(C)=O`, for which the IC50 is > 10 µM (inactive).

On to `CC(=O)Nc1ccc(C2=NNC(=O)CC2C)cc1` (stereo not drawn), for which the IC50 is > 10 µM (inactive).

On to `CC(=O)Nc1ccc(-c2n[nH]c(=O)cc2C)cc1`, for which the IC50 is > 10 µM (inactive). The result for `C[C@@H]1CC(=O)NN=C1c1ccc(N2CCOCC2)cc1` (racemic) reads > 10 µM (inactive); that for `Cc1nc2ccc(C3=NNC(=O)C[C@H]3C)cc2[nH]1`, > 10 µM (inactive); that for `C[C@@H]1CC(=O)NN=C1c1ccc(N2CCN(C)CC2)cc1`, > 10 µM (inactive). With `CC(=O)Nc1ccc(C2=NNC(=O)C[C@H]2C)cc1[N+](=O)[O-]`, the IC50 is > 10 µM (inactive). The result for `CCNc1ccc(C2=NNC(=O)C[C@H]2C)cc1[N+](=O)[O-]` reads > 10 µM (inactive). The result for `O=C1CC(c2ccccc2)=NN1` reads > 10 µM (inactive); that for `CC1(C)C(=O)NN=C1c1ccc(N2CCOCC2)cc1`, > 10 µM (inactive); that for `Cc1ccc(CCC(=O)N2CCN(c3ccc(C4=NNC(=O)CC4C)cc3)CC2)cc1` (stereo not drawn), > 10 µM (inactive).

Take `CCN(CC)c1ccc(C2=NNC(=O)C[C@H]2C)cc1`: the IC50 was > 10 µM (inactive). As to `C[C@@H]1CC(=O)NN=C1c1ccc(Cl)cc1`, the IC50 is > 10 µM (inactive).

Turning to `CC1CC(=O)NN=C1c1ccc(N2CCN(C(=O)Cc3ccc(Cl)cc3Cl)CC2)cc1` (stereo not drawn), the IC50 is > 10 µM (inactive). Take `CCCc1ccc(C2=NNC(=O)C[C@H]2C)cc1`: the IC50 was > 10 µM (inactive). For the compound `C[C@H]1CC(=O)NN=C1c1ccc(F)c(F)c1`, the IC50 was > 10 µM (inactive). Consider `CC1C(=O)NN=C1c1ccc([N+](=O)[O-])cc1` (stereo not drawn), for which the IC50 was > 10 µM (inactive). In the case of `CC1(C)C(=O)NN=C1c1ccc(Cl)cc1`, the IC50 was > 10 µM (inactive). Take `CC1(C)C(=O)NN=C1c1ccc(N)cc1`: the IC50 was > 10 µM (inactive).

For `CCNc1ccc(C2=NNC(=O)C[C@H]2C)cc1`, the IC50 is > 10 µM (inactive). As for `Cc1cc(=O)[nH]nc1-c1ccc(N)cc1`, the figure is > 10 µM (inactive); as for `C[C@@H]1CC(=O)NN=C1c1ccc(N2CCCCS2(=O)=O)cc1`, > 10 µM (inactive). The result for `O=C1C[C@H]2CCc3cc(N4CCOCC4)ccc3C2=NN1` (racemic) reads > 10 µM (inactive); that for `C[C@@H]1CC(=O)NN=C1c1ccc(N2CCCCC2=O)cc1`, > 10 µM (inactive); that for `C[C@@H]1CC(=O)NN=C1c1ccccc1`, > 10 µM (inactive). As to `C[C@@H]1CC(=O)NN=C1c1ccc(N2CCCCC2)cc1`, the IC50 is > 10 µM (inactive). As for `CCN(CC)c1ccc(C2=NNC(=O)CC2C)cc1[N+](=O)[O-]` (stereo not drawn), the figure is > 10 µM (inactive).

With `CCN(CC)c1ccc(C2=NNC(=O)CC2C)cc1NC(C)=O` (stereo not drawn), the IC50 is > 10 µM (inactive). The result for `CCN(CC)c1ccc(-c2nc(C(C)C)no2)cc1[N+](=O)[O-]` reads > 10 µM (inactive); that for `C[C@@H]1CC(=O)NN=C1c1ccc(N2CCOCC2)cc1`, > 10 µM (inactive); that for `C[C@@H]1CC(=O)NN=C1c1ccc(C2CCCCC2)cc1`, > 10 µM (inactive). The result for `CC1CC(=O)NN=C1c1cccs1` (stereo not drawn) reads > 10 µM (inactive); that for `C[C@@H]1CC(=O)NN=C1c1ccc(F)c(F)c1`, > 10 µM (inactive); that for `C/C=C/c1ccc(C2=NNC(=O)C[C@H]2C)cc1`, > 10 µM (inactive).

The record behind these values is PubChem BioAssay AID743090 (Broad Institute, 2013).
